TGI and GI50 data for 25 compounds are collected here from PubChem BioAssay (NCI).

Some test systems named below: UACC-62 melanoma; SK-MEL-5 melanoma; HOP-62 NSCLC; OVCAR-4 ovarian; SF-539 CNS; NCI-H522 lung; HL-60(TB) leukemia; NCI/ADR-RES ovarian; HS 578T breast.
Common to all, as to test: NCI tumour cell line growth inhibition, 48 h

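Protocol summary: plate cells (96-well), add compound at 5 concentrations, incubate 48 h, interpolate endpoints linearly. GI50 is the concentration that inhibits growth by half. At the TGI there is no net growth.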 A value given as a limit tells only on which side of the number the result lay.

`O=C(c1ccccc1)[C@H]1Nc2ccc(Cl)cc2[C@H]2c3ccccc3O[C@H]21`: the TGI in the experiment on UACC-62 melanoma came to 28.6 µM; in the experiment on SK-MEL-5 melanoma, 27.5 µM; in the experiment on HOP-62 NSCLC, 32.5 µM; with OVCAR-4 ovarian, 32.3 µM; in the experiment with SF-539 CNS it was 28.7 µM; with NCI-H522 lung, 33.8 µM.

Turning to `O=c1c2ccccc2c(=O)n2n1-c1cccc(c1)CSSCc1cccc-2c1`, the GI50 in the experiment with UACC-62 melanoma, with SK-MEL-5 melanoma, with HOP-62 NSCLC, in the experiment on OVCAR-4 ovarian, in the experiment on SF-539 CNS and in the experiment with NCI-H522 lung was above 100 µM in each case. Also, the TGI in the experiment on UACC-62 melanoma, in the experiment with SK-MEL-5 melanoma, in the experiment on HOP-62 NSCLC, with OVCAR-4 ovarian, with SF-539 CNS and in the experiment with NCI-H522 lung was above 100 µM each time.

In the case of `CC1=NC2(C(=O)O)C3(C(=O)O)N=C(C)OC3(C(F)(F)F)C2(C(F)(F)F)O1` (stereo unspecified), the TGI in the experiment with UACC-62 melanoma, in the experiment with HOP-62 NSCLC, in the experiment with HL-60(TB) leukemia, in the experiment on OVCAR-4 ovarian, with SF-539 CNS and in the experiment on NCI-H522 lung was above 100 µM in each case.

On to `O=C1c2ccccc2C(=O)N1C/C=N/NS(=O)(=O)c1cccc([N+](=O)[O-])c1`, for which the TGI with UACC-62 melanoma, in the experiment on SK-MEL-5 melanoma, in the experiment on HOP-62 NSCLC, with HL-60(TB) leukemia, in the experiment on OVCAR-4 ovarian and with SF-539 CNS was above 100 µM in each case. Further, in the experiment on NCI-H522 lung, the TGI was above 100 µM.

On to `CCOc1ccc2c(c1)[n+]([O-])c(-c1ccccc1)c(N)[n+]2[O-]`, for which the TGI in the experiment on UACC-62 melanoma was above 100 µM; with SK-MEL-5 melanoma, 51.5 µM; in the experiment with HOP-62 NSCLC, above 100 µM; in the experiment on HL-60(TB) leukemia, above 100 µM; in the experiment on OVCAR-4 ovarian it was above 100 µM; with SF-539 CNS it was above 100 µM. Besides, the TGI in the experiment with NCI-H522 lung came out at 32.2 µM.

Consider `CCOP(=O)(OCC)C(C(=O)OC)C(=O)C(=O)Nc1cccc([N+](=O)[O-])c1` (stereo unspecified), for which the TGI in the experiment with UACC-62 melanoma, with SK-MEL-5 melanoma, in the experiment on HOP-62 NSCLC, in the experiment with HL-60(TB) leukemia, with OVCAR-4 ovarian and with SF-539 CNS was above 100 µM in each case. In the experiment on NCI-H522 lung, this compound showed a TGI above 100 µM.

With `CN(N=O)C(=O)NC(CCCCNC(=O)OCc1ccccc1)C(=O)OCc1ccccc1` (stereo unspecified), the TGI was 33.1 µM in the experiment on UACC-62 melanoma; 45.4 µM in the experiment on SK-MEL-5 melanoma; 79.6 µM in the experiment on HOP-62 NSCLC; 48.7 µM in the experiment with HL-60(TB) leukemia; above 100 µM in the experiment with OVCAR-4 ovarian; 32.7 µM with SF-539 CNS. The same compound yielded a TGI with NCI-H522 lung of 29.1 µM.

Turning to `O=C(O)c1ccccc1NS(=O)(=O)c1ccc(Cl)cc1`, the TGI in the experiment on UACC-62 melanoma, with SK-MEL-5 melanoma, with HOP-62 NSCLC, in the experiment on OVCAR-4 ovarian, with SF-539 CNS and in the experiment on NCI-H522 lung was above 100 µM in each case.

With `Cc1cc(C)c2c(c1)CSCc1cc(C)cc(C)c1-2`, the TGI was above 100 µM with UACC-62 melanoma; 65 µM in the experiment on SK-MEL-5 melanoma; 69.8 µM in the experiment on HOP-62 NSCLC; 43.3 µM in the experiment on HL-60(TB) leukemia; above 100 µM in the experiment with OVCAR-4 ovarian; 48 µM in the experiment with NCI-H522 lung.

Take `Cc1cccc(-c2nc(=S)[nH][nH]2)c1`: the TGI in the experiment on UACC-62 melanoma, in the experiment with SK-MEL-5 melanoma, in the experiment with HOP-62 NSCLC, in the experiment on HL-60(TB) leukemia, in the experiment with OVCAR-4 ovarian and in the experiment on SF-539 CNS was above 100 µM in each case. This compound also showed a TGI with NCI-H522 lung above 100 µM.

As for `O=C1C2C3SC(c4cc5ccccc5cc43)C2C(=O)N1c1ccccc1` (stereo unspecified), the TGI in the experiment on UACC-62 melanoma, with SK-MEL-5 melanoma, in the experiment with HL-60(TB) leukemia, in the experiment on OVCAR-4 ovarian, with SF-539 CNS and in the experiment on NCI-H522 lung was above 100 µM throughout.

Turning to `CCN(CC)CC(C(=O)Nc1c(C)cccc1C)/C(C)=N\NC(=S)NN` (stereo unspecified), the TGI in the experiment with UACC-62 melanoma, with SK-MEL-5 melanoma, in the experiment on HOP-62 NSCLC, in the experiment on HL-60(TB) leukemia, with SF-539 CNS and in the experiment with NCI-H522 lung was above 100 µM throughout.

`O=[N+]([O-])c1ccc(Cl)c(C2CC(c3cccc4ccccc34)=Nc3ccccc3S2=O)c1` (stereo unspecified): the TGI in the experiment on UACC-62 melanoma is 40.8 µM; with SK-MEL-5 melanoma it was 40 µM; in the experiment on HOP-62 NSCLC it was above 62.6 µM; in the experiment on HL-60(TB) leukemia, 34.1 µM; in the experiment on OVCAR-4 ovarian it was above 84.2 µM; with SF-539 CNS it was 19.1 µM.

For the compound `CCC(=O)N1C(=S)SC[C@H]1C(=O)OC`, the TGI with UACC-62 melanoma, in the experiment on SK-MEL-5 melanoma, in the experiment with HOP-62 NSCLC, in the experiment on HL-60(TB) leukemia, in the experiment with OVCAR-4 ovarian and with SF-539 CNS was above 100 µM each time. Moreover, the TGI in the experiment with NCI-H522 lung was above 100 µM.

On to `CCOc1ccc2c(c1)[n+]([O-])c(C(N)=O)c(N)[n+]2[O-]`, for which the TGI in the experiment with SK-MEL-5 melanoma, with HOP-62 NSCLC, in the experiment on HL-60(TB) leukemia, in the experiment on OVCAR-4 ovarian, in the experiment on SF-539 CNS and in the experiment on NCI-H522 lung was above 100 µM in each case.

Regarding `O=c1c(-c2cccc3ccccc23)c(-c2cccc3ccccc23)c1=O`, the TGI in the experiment on UACC-62 melanoma is above 100 µM; in the experiment with SK-MEL-5 melanoma it was 40 µM; with HOP-62 NSCLC, 49.1 µM; in the experiment with HL-60(TB) leukemia it was 4.87 µM; in the experiment on SF-539 CNS, 4.75 µM; in the experiment with NCI-H522 lung, 3.12 µM.

For `O=C1/C(=C/c2cc(O)c(O)c(O)c2)Oc2cc(O)cc(OC3OC(CO)C(O)C(O)C3O)c21` (stereo unspecified), the TGI was 38.8 µM with UACC-62 melanoma; 31 µM in the experiment with SK-MEL-5 melanoma; 43.1 µM with HL-60(TB) leukemia; 6.49 µM in the experiment with OVCAR-4 ovarian; above 100 µM with SF-539 CNS.

With `c1ccc2[nH]c(-c3ccc(Nc4nc(N5CCCC5)nc5[nH]ncc45)cc3)nc2c1`, the GI50 with NCI/ADR-RES ovarian is 0.392 µM; with SK-MEL-5 melanoma, 1.29 µM; with HOP-62 NSCLC it was 1.46 µM; in the experiment on HL-60(TB) leukemia it was 0.216 µM; with HS 578T breast, 1.21 µM; in the experiment with OVCAR-4 ovarian, 1.06 µM. In addition, the GI50 was 1.05 µM in the experiment on SF-539 CNS and 0.244 µM with NCI-H522 lung. Also, the TGI in the experiment on NCI/ADR-RES ovarian came out at 1.47 µM; in the experiment with SK-MEL-5 melanoma, 2.56 µM; in the experiment with HOP-62 NSCLC, 3.07 µM; in the experiment on HL-60(TB) leukemia, 0.517 µM; with HS 578T breast it was 4.26 µM; in the experiment on OVCAR-4 ovarian, 2.81 µM. The TGI in the experiment on SF-539 CNS was found to be 2.24 µM; in the experiment on NCI-H522 lung, 1.07 µM.

For the compound `CCN(CC)C(=O)c1cccc2c(OC)ccc(OC)c12`, the TGI with UACC-62 melanoma, in the experiment with SK-MEL-5 melanoma, in the experiment with HOP-62 NSCLC, in the experiment with HL-60(TB) leukemia, with OVCAR-4 ovarian and in the experiment on NCI-H522 lung was above 100 µM in each case.

Regarding `O=S(=O)(c1ccccc1)N1CCC1c1ccccc1` (stereo unspecified), the TGI is above 100 µM with UACC-62 melanoma; above 100 µM in the experiment on SK-MEL-5 melanoma; above 100 µM in the experiment on HOP-62 NSCLC; 85.1 µM with HL-60(TB) leukemia; above 100 µM in the experiment on OVCAR-4 ovarian; above 100 µM in the experiment on SF-539 CNS. In addition, in the experiment with NCI-H522 lung, the TGI was above 100 µM.

Turning to `CN(c1ccccc1)c1nc(=[N+](C)C)ss1`, the TGI in the experiment on UACC-62 melanoma, in the experiment on SK-MEL-5 melanoma, with HOP-62 NSCLC, in the experiment with HL-60(TB) leukemia, in the experiment with OVCAR-4 ovarian and in the experiment on SF-539 CNS was above 100 µM each time. Besides, in the experiment with NCI-H522 lung, the TGI is above 100 µM.

For the compound `CN(C)C(=C1C(Br)=C(Br)C(Br)=C1Br)N(C)C`, the TGI in the experiment with UACC-62 melanoma, in the experiment with SK-MEL-5 melanoma, with HOP-62 NSCLC, in the experiment with HL-60(TB) leukemia, in the experiment on OVCAR-4 ovarian and with SF-539 CNS was above 100 µM throughout. For the same compound, the TGI in the experiment with NCI-H522 lung worked out at 39.9 µM.

As to `O=S1(=O)[C@H](c2ccccc2)c2c(-c3ccccc3)sc(-c3ccccc3)c2[C@@H]1c1ccccc1`, the TGI with UACC-62 melanoma, in the experiment with SK-MEL-5 melanoma, in the experiment with HOP-62 NSCLC, with HL-60(TB) leukemia, in the experiment on OVCAR-4 ovarian and with SF-539 CNS was above 100 µM in each case. This compound also displayed a TGI in the experiment on NCI-H522 lung above 100 µM.

Regarding `CC[O-].CC[O-].[O-]c1ccccc1C=NC12CC3CC(CC(C3)C1)C2.[O-]c1ccccc1C=NC12CC3CC(CC(C3)C1)C2.[Ti+4]`, the GI50 with UACC-62 melanoma was 19.6 µM; in the experiment with SK-MEL-5 melanoma, 19.9 µM; in the experiment with HOP-62 NSCLC, above 100 µM; in the experiment on HL-60(TB) leukemia, 52.4 µM; with OVCAR-4 ovarian it was above 100 µM; in the experiment with SF-539 CNS it was above 100 µM. For the same compound, the TGI in the experiment with UACC-62 melanoma, in the experiment with SK-MEL-5 melanoma, in the experiment with HOP-62 NSCLC, with HL-60(TB) leukemia, in the experiment on OVCAR-4 ovarian and in the experiment with SF-539 CNS was above 100 µM throughout.

As for `CC1COS(=O)N1c1ccccc1` (stereo unspecified), the TGI in the experiment with UACC-62 melanoma, in the experiment on SK-MEL-5 melanoma, with HOP-62 NSCLC, in the experiment on HL-60(TB) leukemia, in the experiment on OVCAR-4 ovarian and in the experiment with NCI-H522 lung was above 100 µM in each case.
